Results reported in patent US10226044B2, “Agricultural and horticultural composition and method for cultivating plant” (AJINOMOTO CO., INC., priority 2014, dated 2019).
Where two headings read alike, the source gives them in different places.

Legend:
Psy, Pds and Zds genes = assay: Real-time PCR of genes involved in carotenoid synthesis in leaves; assay type: in vivo, cherry tomato; details: 10 mM Ile, leaves 24 hours after sprinkling
Method: A 10 mM isoleucine aqueous solution (Ile) or water (Con.) was sprinkled on leaf surfaces of cherry tomato plants, and RNA was isolated from the leaves 24 hours afterward. By using the isolated RNA, expression of the genes that participate in the biosynthesis of carotenoids, genes of phytoene synthase (Psy), phytoene desaturase (Pds), and ξ-carotene desaturase (Zds), were analyzed. The extraction of RNA, synthesis of cDNA, and real-time PCR analysis were conducted in the same manner as described above.

rice seeds = rice seeds treated with 0.2 to 20 mM isoleucine; cited from earlier work
tomato (Momotaro Fight) = assay: Sprinkling of various compounds on tomato (Momotaro): first appearance, coloring and number of fruit; assay type: in vivo
Method: Three seeds of tomato (Momotaro Fight) were shown in compost contained in a slit pot, and cultivated in the same manner as described in Example 1, provided that the cultivation was performed in a greenhouse (daytime temperature was 25° C. (6:00 to 20:00), and night temperature was 15° C. (20:00 to 6:00)). The compost and application of fertilizer were the same or performed in the same manner as those described in Example 1. After 3 weeks, one root clump was left, and the others were thinned out. When a flower cluster of the first tier appeared, a support was put up, and after a flower cluster of the second tier appeared, pinching was performed (pinching of terminal bud). After the plants of four root clumps uniformly grew, and flower buds began to appear, water (Con.), 10 mM L-isoleucine aqueous solution (Ile), 10 mM monosodium glutamate aqueous solution (GluNa), 5 mM urea aqueous solution (Urea), or 10 mM phenylalanine aqueous solution (Phe) was sprinkled on the whole plants every two weeks. The sprinkled volume was adjusted in accordance with the growth of the plants, and it was 15 to 30 mL per one root clump. The concentration of urea was 5 mM so that nitrogen amount provided by it was the same as that provided by each of the amino acids. Then, the first appearance of fruit, ripening of fruit, and number of fruit produced were investigated for each root clump.

[1] = system: cherry tomato (Suncherry Pure); assay: Amino acid analysis of tomato fruit obtained with sprinkling of Ile or Pro; assay type: in vivo
Method: (§1) After the plants of four root clumps uniformly grew, and flower buds began to appear, water (Con.), 10 mM L-isoleucine aqueous solution (Ile), or 10 mM proline aqueous solution (Pro) was sprinkled on the whole plants once a week. The sprinkled volume was adjusted in accordance with the growth of the plants, and it was 15 to 30 mL per one root clump.
Mature fruit were taken from each of the cherry tomato plants sprinkled with water, Ile, or Pro, and the amino acid content was analyzed for each. Two pieces of fruit were taken from the flower cluster of the second tier of one root clump, that is, a total of 8 pieces of fruit were taken for each test group. Fruit juice was pressed out of each piece of fruit, and the fruit juice was diluted 10 times with 0.02 N HCl, and subjected to filter filtration. The amino acids contained in the obtained filtrate were measured. Measurement of the amino acids was performed with High Speed Amino Acid Analyzer L-8800 (Hitachi) according to the manual of this instrument. The amounts of the amino acids (μmol/mL) in each fruit juice filtrate were calculated, and the averages for eight pieces of fruit were used as the amino acid amounts of the corresponding test group.

[2] = cited from earlier work
[3] = system: LOX, JAR1, PI and MYC2 genes; assay: Investigation of isoleucine concentration for sprinkling (II): gene expression; assay type: in vivo, tomato (Caddy); details: 50 mM Ile, 3 mL on leaf surfaces (0.01, 0.1, 50, 100 mM tested)
Method: Tomato plants (variety: Caddy, Tokita Seed) were cultivated in a biotron room in the same manner as described in Example 1. Three weeks after sowing, 3 mL of water, or a 0.01 mM, 0.1 mM, 50 mM, or 100 mM isoleucine aqueous solution (Ile) was sprinkled on leaf surfaces of each plant, sampling was performed from the second foliage leaves, and expression of LOX, JAR1, PI and MYC2 genes were analyzed in the same manner as described in Example

[4] = system: cherry tomato (Suncherry Pure); assay: Antioxidant capacity of tomato fruit extract (DPPH radical method); assay type: in vivo; details: 70% methanol extract of mature fruit; compared to tomatoes sprinkled with water (Con.) or Pro
Method: as §1

[5] = system: tomato fruit (Suncherry Pure); assay: Coloring and carotenoid content of harvested immature tomato fruit sprinkled with Ile; assay type: in vivo
Method: Then, the beakers were closed with plastic wrap, and left for 5 hours; then the wrap was removed, and the fruit were left as they were. The test was performed at room temperature, and the sprinkling of water and Ile solution was performed twice in total at an interval of one week. […] The tomato fruit of which seeds were removed were frozen with liquid nitrogen, and ground in a mortar. […] The extraction mixture was centrifuged for 5 minutes (8000 rpm), and the chloroform layer as the lower layer was transferred to a new tube. Chloroform (0.5 mL) was added again to the former tube, extraction was performed in the same manner, and the chloroform layer was fully taken out, and transferred to the latter tube containing the aforementioned chloroform extract. Then, chloroform was evaporated from the obtained extract by using a centrifugal evaporator. Then, a sample solution was prepared by adding 0.5 mL of chloroform to the residue to dissolve it, and carotenoids contained in the sample solution were analyzed. For the measurement of carotenoids, the extraction sample was diluted 100 times with chloroform, and absorbance thereof was measured at the extinction wavelength of carotenoids (480 nm) by using DU800 Spectrophotometer (Beckman Coulter).

Phelipanche aegyptiaca = details: plants cultivated on an agar medium; cited from earlier work
[6] = fruit juice, plants sprinkled with 10 mM solution once a week, average of 8 fruit

With `CC[C@H](C)[C@H](N)C(=O)O` [Ile, L-isoleucine] the “expression of Pds” value (Psy, Pds and Zds genes) was “increased”, the “expression of Psy” value (Psy, Pds and Zds genes) was “increased” and the “expression of Zds” value (Psy, Pds and Zds genes) was “increased”. For the same compound, the “production of momilactones A and B” value (rice seeds) was “promoted”, the “color of fruit obtained from flowers that bloomed on the same day” value (tomato (Momotaro Fight); 10 mM, fruit of water-sprinkled plant was green) was “already turned color to red” and the “number of fruit turning color to orange or red” value (tomato (Momotaro Fight); 107th day after sowing, per four root clumps, water: 0) was 4. The “number of harvested fruits” value (tomato (Momotaro Fight); after cultivation for 3 months after sowing, per four root clumps, water: 8) was 16, the “many kinds of essential amino acids including branched chain amino acids and aromatic amino acids in fruit” value ([1]; 10 mM sprinkled once a week, compared to control) was “increased” and the “Ala in fruit juice” value [1, 6] was 4.51 µmol/mL. The “Arg in fruit juice” value [1, 6] was 0.14 µmol/mL, the “Asn in fruit juice” value [1, 6] was 0.55 µmol/mL and the “Asp in fruit juice” value [1, 6] was 1.33 µmol/mL. The “Cys in fruit juice” value [1, 6] was 0.21 µmol/mL, the “Gln in fruit juice” value [1, 6] was 1.1 µmol/mL and the “Glu in fruit juice” value [1, 6] was 6.46 µmol/mL. The “Gly in fruit juice” value [1, 6] was 0.35 µmol/mL, the “His in fruit juice” value [1, 6] was 0.19 µmol/mL and the “Ile in fruit juice” value [1, 6] was 0.23 µmol/mL. The “Leu in fruit juice” value [1, 6] was 0.39 µmol/mL, the “Lys in fruit juice” value [1, 6] was 0.33 µmol/mL and the “Met in fruit juice” value [1, 6] was 0.09 µmol/mL. The “Phe in fruit juice” value [1, 6] was 0.5 µmol/mL, the “Pro in fruit juice” value [1, 6] was 0.33 µmol/mL and the “Ser in fruit juice” value [1, 6] was 0.67 µmol/mL. The “Thr in fruit juice” value [1, 6] was 0.3 µmol/mL, the “Total amino acids in fruit juice” value [1, 6] was 20.25 µmol/mL and the “Trp in fruit juice” value [1, 6] was 0.06 µmol/mL. The “Tyr in fruit juice” value [1, 6] was 0.082 µmol/mL, the “Val in fruit juice” value [1, 6] was 0.21 µmol/mL and the “γ-ABA in fruit juice” value [1, 6] was 6.42 µmol/mL. The “solubility of isoleucine in water” value ([2]; 20° C.) was 40.2 mg/mL, the “solubility of isoleucine in water” value [2] was “about 0.3 M” and the “Expression of the LOX, JAR1, PI and MYC2 genes” value [3] was “promoted”. The “antioxidant capacity (free radical-eliminating ability, DPPH)” value [4] was “higher”, the “color of harvested fruit around the 27th day” value ([5]; 10 mM Ile, 1 mL on six immature fruit, twice at an interval of one week, room temperature, water control still green) was “began to turn color” and the “color of harvested fruit around the 34th day” value ([5]; 10 mM Ile, sprinkled twice, water control still half-mature orange) was “turned color to a fully mature red”. The “carotenoid content of the tomato fruit” value ([5]; around the 27th day, absorbance at 480 nm, compared to fruit treated with water) was “higher” and the “infection of Phelipanche aegyptiaca in Arabidopsis thaliana” value (Phelipanche aegyptiaca) was “ineffective”.
